From PMC7822819, “Discovery of a new class of integrin antibodies for fibrosis” (Scientific Reports, 2021) come the findings set out here.

Test [1] deals with T1, CHOK1-mαvβ3 cells (Mus musculus, UniProt O54890+P43406).
T1 construct: expressed in transfected cells
In words: Cell adhesion assay (Epic) on vitronectin. It counts as cell-based. The note with it: vitronectin matrix; in words. On the procedure: (§1) For plate preparation, Epic 384-well assay plates (Corning #5040) were washed with OptiMEM (Gibco #31985-070) and coated with murine fibronectin (Abcam #ab92784) at a concentration of 0.1 μg/well for CHO-a5KO-mαvβ1 cells; murine vitronectin (Abcam #ab92727) at 0.075 μg/well for CHO-mαvβ3 cells; or murine vitronectin at 0.125 μg/well for CHO-mαvβ5 (all at a volume of 25 μl/well in OptiMEM), for 1 h. Coating solution was then removed by flicking and plates were washed with OptiMEM and blocked with 25 μl/well of assay buffer [1% Ovalbumin (Sigma #A5503-10G) in OptiMEM containing 1X Pen-Strep (Gibco #15140-148)]. A 5-min baseline reading was taken on a Corning Epic Plate Reader (Model: Epic BT-157900) before removing the assay buffer and adding cells pre-incubated with inhibitors. The Epic plate reader detects cellular mass redistribution (adhesion) on the plate surface as a picometer wavelength shift over time. […] Cells were incubated with the inhibitors for 1 h at RT with gentle rocking, after which 50 μL per well was transferred to the Epic assay plate, and a time course of cell adhesion was monitored for an additional 3 h.

Test [2] addresses T2, CHOK1-mαvβ5 cells (Mus musculus, UniProt O70309+P43406).
T2 construct: expressed in transfected cells
In words: Cell adhesion assay (Epic) on vitronectin. It is filed as cell-based. The conditions noted are these: vitronectin matrix; in words. The method, then: as §1

Test [3] deals with T3, mouse αvβ3 (Mus musculus, UniProt O54890+P43406).
T3 construct: mαV 1 988; m β3 1 717; made in house; host or cells: Expi293
T3 sequence (P43406 31-988): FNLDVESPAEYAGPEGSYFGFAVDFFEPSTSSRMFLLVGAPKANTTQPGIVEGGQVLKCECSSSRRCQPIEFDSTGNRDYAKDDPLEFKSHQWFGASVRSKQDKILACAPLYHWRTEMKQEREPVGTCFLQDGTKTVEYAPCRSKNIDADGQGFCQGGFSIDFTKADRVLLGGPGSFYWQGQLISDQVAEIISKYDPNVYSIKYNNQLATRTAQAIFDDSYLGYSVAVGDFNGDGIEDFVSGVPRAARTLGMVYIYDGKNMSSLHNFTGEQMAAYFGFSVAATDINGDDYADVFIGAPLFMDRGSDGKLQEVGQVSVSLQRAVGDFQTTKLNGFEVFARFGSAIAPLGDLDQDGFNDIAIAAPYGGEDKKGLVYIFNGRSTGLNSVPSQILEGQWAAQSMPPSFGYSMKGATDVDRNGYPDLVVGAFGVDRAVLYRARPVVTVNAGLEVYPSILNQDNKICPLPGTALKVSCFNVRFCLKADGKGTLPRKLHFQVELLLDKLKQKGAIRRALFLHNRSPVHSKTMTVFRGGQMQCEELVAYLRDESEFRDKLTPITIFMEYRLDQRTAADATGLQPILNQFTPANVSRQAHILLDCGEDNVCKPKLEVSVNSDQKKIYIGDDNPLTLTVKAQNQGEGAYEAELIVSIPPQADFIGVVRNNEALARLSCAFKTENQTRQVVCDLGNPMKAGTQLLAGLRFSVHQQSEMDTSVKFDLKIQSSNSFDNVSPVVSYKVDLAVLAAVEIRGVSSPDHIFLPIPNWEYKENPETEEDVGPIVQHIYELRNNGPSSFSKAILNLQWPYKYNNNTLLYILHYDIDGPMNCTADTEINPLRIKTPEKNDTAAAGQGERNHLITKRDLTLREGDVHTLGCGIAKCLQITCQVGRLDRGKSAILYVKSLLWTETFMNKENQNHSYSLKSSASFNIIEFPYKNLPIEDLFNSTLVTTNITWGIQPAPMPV
T3 sequence (O54890 26-717): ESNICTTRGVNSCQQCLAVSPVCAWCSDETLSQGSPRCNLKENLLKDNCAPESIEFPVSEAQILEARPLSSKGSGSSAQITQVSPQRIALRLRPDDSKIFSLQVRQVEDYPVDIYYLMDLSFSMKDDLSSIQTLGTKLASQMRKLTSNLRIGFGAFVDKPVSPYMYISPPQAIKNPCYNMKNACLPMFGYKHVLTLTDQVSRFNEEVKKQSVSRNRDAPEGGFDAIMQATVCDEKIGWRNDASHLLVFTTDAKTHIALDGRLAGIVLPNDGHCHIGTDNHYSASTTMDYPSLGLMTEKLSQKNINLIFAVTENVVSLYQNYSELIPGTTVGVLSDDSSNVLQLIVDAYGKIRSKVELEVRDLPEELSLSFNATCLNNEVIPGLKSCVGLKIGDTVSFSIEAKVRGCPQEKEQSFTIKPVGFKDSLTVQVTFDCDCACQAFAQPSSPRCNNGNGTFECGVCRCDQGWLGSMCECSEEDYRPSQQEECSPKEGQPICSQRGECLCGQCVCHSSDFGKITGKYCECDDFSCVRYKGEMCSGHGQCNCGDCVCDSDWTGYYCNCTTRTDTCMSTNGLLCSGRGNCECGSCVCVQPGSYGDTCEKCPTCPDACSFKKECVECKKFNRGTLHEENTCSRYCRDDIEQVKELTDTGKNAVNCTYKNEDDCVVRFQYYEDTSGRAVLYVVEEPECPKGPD
The test is described as follows: AlphaLISA integrin-ligand binding assay. It is filed as biochemical. The conditions noted are these: Fig. 4B; read-out: IC50 Mouse integrin AlphaLISA assays: mαvβ3. The method, then: (§2) In the AlphaLISA integrin assays, we used a HEPES based buffer (25 mM HEPES pH 7.4, 137 mM NaCl, 1 mM MgCl2, 1 mM MnCl2, 2 mM CaCl2, 2.7 mM KCl, and 0.05% Tween-20). Optimal assay conditions were determined with a titration of the reagents for signal noise ratio (S/N), linear range, etc. For the respective integrins, we used the final concentrations described in Supplemental Table S3. Briefly, the testing antibody (8 μL) was added as a 4x (of Final testing concentration) solution in the HEPES buffer described previously into a 384w AlphaPlate (Perkin Elmer #6005350). Then the integrin and ligand were added sequentially as 8x (4 μL each). Plates were sealed and incubated at room temperature for 2 h. Then 4 × acceptor bead solution (8 μL) was added, and the plates were resealed and incubated at RT for 1 h. Finally, 4 × (8 μL) donor beads solution was added in a darkened room and incubated for 45 min at room temperature. Plates were read on the Envision (Perkin Elmer) in AlphaScreen mode within 3 h of donor bead addition.
(§3) Supplemental Table S3. integrin AlphaLIS A assay reagents and conditions Human A l phal i sa Inte gri n A ssays: Fi nal Condi ti ons […]
(§4) ( batch de pe nde nt) anti body A l phaLi sa A cce ptor havb1 1. 4 nM 1. 0 nMα - Fi brone cti n human Fi brone cti n n/a A cce ptor be ads/ Pe rki n 10. 0 ug/ m 10. 0 ug/ m […]
(§5) havb3 3. 0 nM 10. 0 nMhuman V i trone cti n- GST α - GS T A cce p t o r ug/ m Stre ptavi di n Donor ug/ m tagge d n/a be ads/ Pe rki n 15. 0 l be ads/ Pe rki n El me r 15. 0 l […]
(§6) havb6 0. 1 nM 0. 5 nM 3. […]
(§7) Mouse A l phal i sa Inte gri n A ssays: Fi nal Condi ti ons […]
(§8) m aV b 1 4. 3 nM 1. 0 nMmouse f i brone cti n A bcam α - Fi brone cti n ( Rabbi t […]
(§9) 0 nM 5. […] 0nM be ads/ Pe rki n El me r […]
(§10) m aV b 6 1. 4 nM 2. 5 nMmouse LA P- 6Hi s α - 6x HI S / P e rk i n El m e r ug/ m ug/ m m aV b 8 1. 0 nM 2. 5 nMChe mpartne rn/a( A L 128) 15 l 15 l
(In Alpha technology, singlet oxygen from a donor bead excites a nearby acceptor bead.)

The target of test [4] is T4, human αvβ5 (Homo sapiens, UniProt P06756+P18084).
T4 construct: hαV 1 992; hβ5 1 719; made in house; host or cells: Expi293
T4 sequence (P06756 31-992): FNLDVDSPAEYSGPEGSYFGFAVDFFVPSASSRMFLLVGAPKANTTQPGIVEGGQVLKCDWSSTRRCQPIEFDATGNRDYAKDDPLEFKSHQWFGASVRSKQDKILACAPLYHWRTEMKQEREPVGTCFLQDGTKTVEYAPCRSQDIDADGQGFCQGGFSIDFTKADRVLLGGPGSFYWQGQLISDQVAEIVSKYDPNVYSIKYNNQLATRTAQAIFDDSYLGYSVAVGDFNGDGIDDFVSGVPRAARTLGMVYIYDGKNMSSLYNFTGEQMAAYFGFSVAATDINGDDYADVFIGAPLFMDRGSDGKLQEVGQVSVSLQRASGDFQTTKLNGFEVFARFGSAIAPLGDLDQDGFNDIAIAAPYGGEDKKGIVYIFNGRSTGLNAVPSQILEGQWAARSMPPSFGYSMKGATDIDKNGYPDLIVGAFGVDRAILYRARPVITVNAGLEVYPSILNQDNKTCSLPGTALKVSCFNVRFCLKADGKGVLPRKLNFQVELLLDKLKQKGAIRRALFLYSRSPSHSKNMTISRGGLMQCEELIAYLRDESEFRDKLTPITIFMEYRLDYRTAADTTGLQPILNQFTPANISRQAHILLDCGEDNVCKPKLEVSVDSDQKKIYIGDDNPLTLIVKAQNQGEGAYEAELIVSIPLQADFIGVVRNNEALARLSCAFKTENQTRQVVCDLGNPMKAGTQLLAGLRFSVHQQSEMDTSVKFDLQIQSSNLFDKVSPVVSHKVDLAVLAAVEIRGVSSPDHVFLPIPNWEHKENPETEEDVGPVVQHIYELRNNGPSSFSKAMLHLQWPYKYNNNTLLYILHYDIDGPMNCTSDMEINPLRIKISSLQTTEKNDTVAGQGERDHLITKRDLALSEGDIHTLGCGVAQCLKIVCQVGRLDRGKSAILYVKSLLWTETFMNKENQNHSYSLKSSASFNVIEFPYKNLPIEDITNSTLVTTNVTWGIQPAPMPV
T4 sequence (P18084 24-719): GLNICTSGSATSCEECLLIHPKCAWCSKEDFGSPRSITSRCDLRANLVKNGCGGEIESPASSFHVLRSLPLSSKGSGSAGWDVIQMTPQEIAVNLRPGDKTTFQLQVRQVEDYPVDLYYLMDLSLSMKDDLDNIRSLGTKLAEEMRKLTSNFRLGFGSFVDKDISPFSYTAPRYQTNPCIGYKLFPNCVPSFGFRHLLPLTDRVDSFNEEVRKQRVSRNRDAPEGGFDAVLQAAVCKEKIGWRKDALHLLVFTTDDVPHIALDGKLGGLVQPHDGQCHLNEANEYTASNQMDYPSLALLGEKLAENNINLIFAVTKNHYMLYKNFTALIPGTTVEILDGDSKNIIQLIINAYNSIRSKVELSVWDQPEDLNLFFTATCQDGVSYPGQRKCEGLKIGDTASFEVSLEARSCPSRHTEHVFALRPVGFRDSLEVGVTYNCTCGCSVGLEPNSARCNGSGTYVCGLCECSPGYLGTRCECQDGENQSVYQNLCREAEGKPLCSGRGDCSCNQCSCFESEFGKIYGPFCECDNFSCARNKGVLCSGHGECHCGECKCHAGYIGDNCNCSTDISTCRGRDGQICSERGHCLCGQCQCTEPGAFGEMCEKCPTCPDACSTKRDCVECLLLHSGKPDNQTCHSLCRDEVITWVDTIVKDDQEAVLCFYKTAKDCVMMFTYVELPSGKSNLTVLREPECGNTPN
In words: AlphaLISA integrin-ligand binding assay. It is filed as biochemical. On the procedure:
as §2, §3, §4, §5, §6, §7, §8, §9, §10

Test [5] deals with T5, human αvβ3 (Homo sapiens, UniProt P05106+P06756).
T5 construct: hαV 1 992; hβ3 1 718; made in house; host or cells: Expi293
T5 sequence (P06756 31-992): as the sequence (P06756 31-992) above
T5 sequence (P05106 27-718): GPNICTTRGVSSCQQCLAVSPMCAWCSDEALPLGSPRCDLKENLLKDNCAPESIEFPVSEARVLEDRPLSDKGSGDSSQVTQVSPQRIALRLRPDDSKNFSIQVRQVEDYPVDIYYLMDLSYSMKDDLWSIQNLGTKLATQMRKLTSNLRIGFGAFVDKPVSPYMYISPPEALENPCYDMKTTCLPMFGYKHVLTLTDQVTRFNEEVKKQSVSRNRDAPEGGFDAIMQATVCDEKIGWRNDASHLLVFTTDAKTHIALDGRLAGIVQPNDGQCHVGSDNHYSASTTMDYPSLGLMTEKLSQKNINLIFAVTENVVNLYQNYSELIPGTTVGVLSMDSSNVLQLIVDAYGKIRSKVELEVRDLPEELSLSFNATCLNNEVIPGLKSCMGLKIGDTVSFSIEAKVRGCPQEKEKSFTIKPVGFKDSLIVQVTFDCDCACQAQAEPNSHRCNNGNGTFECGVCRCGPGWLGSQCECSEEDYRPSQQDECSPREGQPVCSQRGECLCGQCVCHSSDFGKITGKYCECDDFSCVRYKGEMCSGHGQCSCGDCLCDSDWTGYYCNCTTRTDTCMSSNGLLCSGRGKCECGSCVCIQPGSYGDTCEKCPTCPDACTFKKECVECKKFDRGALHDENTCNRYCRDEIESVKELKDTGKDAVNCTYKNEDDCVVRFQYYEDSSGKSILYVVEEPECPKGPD
The test is described as follows: AlphaLISA integrin-ligand binding assay. It counts as biochemical. The method, then: as §2, §3, §4, §5, §6, §7, §8, §9, §10

Test [6] concerns the target T6, mouse α5β1 (Mus musculus, UniProt P09055+P11688).
T6 construct: mα5 1 999; m β1 1 728; made in house; host or cells: Expi293
In words: AlphaLISA integrin-ligand binding assay. It is filed as biochemical. The conditions noted are these: Fig. 4B; read-out: IC50 Mouse integrin AlphaLISA assays: mα5β1. The method, then: as §2, §3, §4, §5, §6, §7, §8, §9, §10

Each structure is given as a SMILES string. Where two headings read alike, the source gives them in different places.

Turning to `COc1ccc(C(CC(=O)O)N2CCN(CCCc3ccc4c(n3)NCCC4)C2=O)cn1` (centres unmarked) [MK-0429], the “Effect on cell adhesion, mouse αvβ3” value in test [1] is listed as “decreased”. The “Effect on cell adhesion, mouse αvβ5” value in test [2] is recorded as “decreased”. Also, the half-maximal inhibitory concentration (IC50) (usually the point on the concentration scale where inhibition reaches its midpoint) in test [3] came out at 0.9 nM; in test [4] (Fig. 3D, assay optimisation, read-out: IC50 human αvβ5 AlphaLISA), 9.9 nM; in test [4] (Fig. 4B, read-out: IC50 Human integrin AlphaLISA assays: hαvβ5), 2.9 nM; in test [5] (Fig. 3D, assay optimisation, read-out: IC50 human αvβ3 AlphaLISA), 0.15 nM; in test [5] (Fig. 4B, read-out: IC50 Human integrin AlphaLISA assays: hαvβ3), 1.6 nM; in test [6], 50.3 nM.
